This experiment concerns the target HSD2 (Homo sapiens (Human), UniProt P80365). Description: HSD2 activity: cortisol level (HTRF) in human descending colon organoid-derived monolayer cultures.

Some results are limits rather than exact numbers.

Results on eleven molecules are retold here after US11858959B2, “Glycyrrhetinic acid derivatives for use in treating hyperkalemia” (ARDELYX, INC., priority 2019, dated 2024).

For orientation: pIC50 means the negative decadic logarithm of the IC50, by convention in mol/L. A low value points to a high IC50. One may read the IC50 as the concentration that inhibits the measured activity by half.

Chain of HSD2 (P80365 whole entry): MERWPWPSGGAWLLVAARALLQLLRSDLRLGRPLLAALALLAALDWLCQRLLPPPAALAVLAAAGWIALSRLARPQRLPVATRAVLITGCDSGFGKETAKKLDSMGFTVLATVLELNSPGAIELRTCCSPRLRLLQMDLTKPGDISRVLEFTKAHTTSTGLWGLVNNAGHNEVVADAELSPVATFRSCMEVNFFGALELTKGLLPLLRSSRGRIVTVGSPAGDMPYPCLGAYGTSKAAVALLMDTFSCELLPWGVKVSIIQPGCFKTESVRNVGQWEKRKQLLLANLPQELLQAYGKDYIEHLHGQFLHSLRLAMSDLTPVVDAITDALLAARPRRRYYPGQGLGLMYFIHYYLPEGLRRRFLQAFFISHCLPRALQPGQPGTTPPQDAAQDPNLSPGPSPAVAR
Protocol: Human descending colon epithelial stem cells were cultured as 3D organoids in accordance with Sato et al Gastroenterology. […] Cultures were differentiated using SBM containing ENRA and 30 nM aldosterone on day 3, and cultures were used for assay on day 6 or 7. Compounds were diluted in DMSO and serial dilutions prepared by titrating in DMSO. Compounds were then diluted into DMEM/F12. Transwell plates containing descending colon cultures were washed twice with DMEM/F12 and compound was added to the apical compartment. Cells were incubated with test compound for 30 minutes at 37° C., 5% CO2 to equilibrate across the cell membrane. A second compound plate was prepared in which the serially diluted compounds in DMSO were diluted into DMEM/F12 containing 40 nM cortisol. Following the 30 minute pre-incubation step, the apical media was aspirated and compounds diluted in DMEM/F12 with 40 nM cortisol were added to the apical side of the transwell. The plate was then incubated for four hours at 37° C., 5% CO2. Cortisol levels were measured using a cortisol HTRF assay kit as described by the manufacturer (Cisbio). Concentration-response curves were then plotted and IC50 (and pIC50) values were determined using least squares non-linear regression.
Inhibition of HSD2 activity as measured by the inhibition of the conversion of cortisone to cortisol.

Take “2-(3-((1-PEG5K-1H-1,2,3-triazol-4-yl)methoxy)-4-nitrobenzyl) 9-((5-methyl-2-oxo-1,3-dioxol-4-yl)methyl)(2S,4aS,6aS,6bR,8aR,9S,10S,12aS,12bR,14bR)-10-((2,5,8,11-tetraoxatetradecan-14-oyl)oxy)-2,4a,6a,6b,9,12a-hexamethyl-13-oxo-1,2,3,4,4a,5,6,6a,6b,7,8,8a,9,10,11,12,12a,12b,13,14b-icosahydropicene-2,9-dicarboxylate [Compound 605-2]”: the pIC50 (HSD2 inhibition in human descending colon cultures, 30 min pre-incubation, then 40 nM cortisol for four hours, cortisol HTRF) is reported as 6.9.

Molecule `C[C@]1(C(=O)O)CC[C@]2(C)CC[C@]3(C)C(=CC(=O)[C@@H]4[C@@]5(C)CC[C@H](O)[C@@](C)(N)[C@@H]5CC[C@]43C)[C@@H]2C1` [(2S,4aS,6aS,6bR,8aR,9S,10S,12aS,12bR,14bR)-9-amino-10-hydroxy-2,4a,6a,6b,9,12a-hexamethyl-13-oxo-1,2,3,4,4a,5,6,6a,6b,7,8,8a,9,10,11,12,12a,12b,13,14b-icosahydropicene-2-carboxylic acid] gave an IC50 of more than 10 µM.

As to `C[C@]1(C(=O)O)CC[C@]2(C)CC[C@]3(C)C(=CC(=O)[C@@H]4[C@@]5(C)CC[C@H](OC(=O)NCCN6CCOCC6)[C@@](C)(C(=O)O)[C@@H]5CC[C@]43C)[C@@H]2C1` [(2S,4aS,6aS,6bR,8aR,9S,10S,12aS,12bR,14bR)-2,4a,6a,6b,9,12a-hexamethyl-10-({[2-(morpholin-4-yl)ethyl]carbamoyl}oxy)-13-oxo-1,2,3,4,4a,5,6,6a,6b,7,8,8a,9,10,11,12,12a,12b,13,14b-icosahydropicene-2,9-dicarboxylic acid], the IC50 was more than 10 µM.

In turn, `CCC(=O)O[C@H]1CC[C@]2(C)[C@H]3C(=O)C=C4[C@@H]5C[C@@](C)(C(=O)O)CC[C@]5(C)CC[C@@]4(C)[C@]3(C)CC[C@H]2[C@]1(C)N` [(2S,4aS,6aS,6bR,8aR,9S,10S,12aS,12bR,14bR)-9-amino-2,4a,6a,6b,9,12a-hexamethyl-13-oxo-10-(propanoyloxy)-1,2,3,4,4a,5,6,6a,6b,7,8,8a,9,10,11,12,12a,12b,13,14b-icosahydropicene-2-carboxylic acid] showed a half-maximal inhibitory concentration (IC50) of 0.398 µM.

Take `CCC(=O)O[C@H]1CC[C@@]2(C)[C@@H](CC[C@]3(C)[C@@H]2C(=O)C=C2[C@@H]4C[C@@](C)(C(=O)O)CC[C@]4(C)CC[C@]23C)[C@]1(C)NC(=O)OCc1oc(=O)oc1CC` [Compound 318-1, (2S,4aS,6aS,6bR,8aR,9S,10S,12aS,12bR,14bR)-9-((((5-ethyl-2-oxo-1,3-dioxol-4-yl)methoxy)carbonyl)amino)-2,4a,6a,6b,9,12a-hexamethyl-13-oxo-10-(propionyloxy)-1,2,3,4,4a,5,6,6a,6b,7,8,8a,9,10,11,12,12a,12b,13,14b-icosahydropicene-2-carboxylic Acid]: 0.0355 µM corresponded to half-maximal inhibition (IC50).

As to `COCC(=O)O[C@H]1CC[C@@]2(C)[C@@H](CC[C@]3(C)[C@@H]2C(=O)C=C2[C@@H]4C[C@@](C)(C(=O)O)CC[C@]4(C)CC[C@]23C)[C@]1(C)C(=O)O` [(2S,4aS,6aS,6bR,8aR,9S,10S,12aS,12bR,14bR)-10-[(2-methoxyacetyl)oxy]-2,4a,6a,6b,9,12a-hexamethyl-13-oxo-1,2,3,4,4a,5,6,6a,6b,7,8,8a,9,10,11,12,12a,12b,13,14b-icosahydropicene-2,9-dicarboxylic acid], the IC50 was more than 10 µM.

The molecule `COCO[C@H]1CC[C@@]2(C)[C@@H](CC[C@]3(C)[C@@H]2C(=O)C=C2[C@@H]4C[C@@](C)(C(=O)O)CC[C@]4(C)CC[C@]23C)[C@]1(C)C(=O)OCc1oc(=O)oc1C(C)C` [Compound 258-2, (2S,4aS,6aS,6bR,8aR,9S,10S,12aS,12bR,14bR)-9-(((5-Isopropyl-2-oxo-1,3-dioxol-4-yl)methoxy)carbonyl)-10-(methoxymethoxy)-2,4a,6a,6b,9,12a-hexamethyl-13-oxo-1,2,3,4,4a,5,6,6a,6b,7,8,8a,9,10,11,12,12a,12b,13,14b-icosahydropicene-2-carboxylic Acid] showed an IC50 of 0.126 µM.

`COC(=O)N[C@H]1CC[C@@]2(C)[C@@H](CC[C@]3(C)[C@@H]2C(=O)C=C2[C@@H]4C[C@@](C)(C(=O)O)CC[C@]4(C)CC[C@]23C)[C@]1(C)C(=O)O` [(2S,4aS,6aS,6bR,8aR,9S,10S,12aS,12bR,14bR)-10-[(methoxycarbonyl)amino]-2,4a,6a,6b,9,12a-hexamethyl-13-oxo-1,2,3,4,4a,5,6,6a,6b,7,8,8a,9,10,11,12,12a,12b,13,14b-icosahydropicene-2,9-dicarboxylic acid] displayed an IC50 of more than 10 µM.

For the molecule `C[C@]1(C(=O)O)CC[C@]2(C)CC[C@]3(C)C(=CC(=O)[C@@H]4[C@@]5(C)CC[C@H](O)[C@@](C)(COCC(=O)O)C5CC[C@]43C)[C@@H]2C1` (stereo partly drawn) [(2S,4aS,6aS,6bR,9R,10S,12aS,12bR,14bR)-9-[(carboxymethoxy)methyl]-10-hydroxy-2,4a,6a,6b,9,12a-hexamethyl-13-oxo-1,2,3,4,4a,5,6,6a,6b,7,8,8a,9,10,11,12,12a,12b,13,14b-icosahydropicene-2-carboxylic acid], the IC50 was more than 10 µM.

In turn, `CN(C)CC(=O)O[C@H]1CC[C@@]2(C)[C@@H](CC[C@]3(C)[C@@H]2C(=O)C=C2[C@@H]4C[C@@](C)(C(=O)O)CC[C@]4(C)CC[C@]23C)[C@]1(C)C(=O)O` [(2S,4aS,6aS,6bR,8aR,9S,10S,12aS,12bR,14bR)-10-{[2-(dimethylamino)acetyl]oxy}-2,4a,6a,6b,9,12a-hexamethyl-13-oxo-1,2,3,4,4a,5,6,6a,6b,7,8,8a,9,10,11,12,12a,12b,13,14b-icosahydropicene-2,9-dicarboxylic acid] had an IC50 of more than 10 µM.

`C[C@]1(C(=O)O)CC[C@]2(C)CC[C@]3(C)C(=CC(=O)[C@@H]4[C@@]5(C)CC[C@H](OC(=O)CS(C)(=O)=O)[C@@](C)(C(=O)O)[C@@H]5CC[C@]43C)[C@@H]2C1` [(2S,4aS,6aS,6bR,8aR,9S,10S,12aS,12bR,14bR)-10-[(2-methanesulfonylacetyl)oxy]-2,4a,6a,6b,9,12a-hexamethyl-13-oxo-1,2,3,4,4a,5,6,6a,6b,7,8,8a,9,10,11,12,12a,12b,13,14b-icosahydropicene-2,9-dicarboxylic acid] yielded a 50% inhibitory concentration (IC50) of more than 10 µM.
